Consider one compound from publication PMC3605789 (Nature communications, 2013).

Usually IC50 stands for the midpoint of a concentration-inhibition curve.

This assay has as its target T1, inositol monophosphatase (IMPase) (Homo sapiens, UniProt P29218).
T1 sequence (P29218 1-277): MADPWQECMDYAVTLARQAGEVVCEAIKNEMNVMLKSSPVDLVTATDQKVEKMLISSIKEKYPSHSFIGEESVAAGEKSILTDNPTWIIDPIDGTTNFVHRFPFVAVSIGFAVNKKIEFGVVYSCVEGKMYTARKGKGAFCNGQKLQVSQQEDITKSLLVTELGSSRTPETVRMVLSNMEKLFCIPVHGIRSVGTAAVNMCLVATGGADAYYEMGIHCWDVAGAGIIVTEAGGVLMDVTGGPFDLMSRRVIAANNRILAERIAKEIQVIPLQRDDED
Description: electrospray mass spectrometry of the covalent complex. The assay is classed as biochemical.

Take `O=c1c2ccccc2[se]n1-c1ccccc1` [ebselen]: the midpoint of inhibition, the IC50, lay at 1500 nM.
